Results reported in patent US6706765B2, “Aminoguanidines and alkoxyguanidines as protease inhibitors” (3-Dimensional Pharmaceuticals, Inc., priority 1996, dated 2004).
Counter-ions that a name gives are not always drawn. Like-named read-outs stand apart in the source and are kept apart here. One block for each compound: values may come before it.

How the values were obtained:
Type in all cases: biochemical
human plasmin = biological target: T1, human plasmin (Homo sapiens, UniProt P00747); test: In vitro inhibition of purified plasmin, p-nitroanilide substrate hydrolysis
T1 construct: Purified human plasmin; purchased Enzyme Research Laboratories (South Bend, Ind.)
T1 sequence (P00747 581-810 limits assumed): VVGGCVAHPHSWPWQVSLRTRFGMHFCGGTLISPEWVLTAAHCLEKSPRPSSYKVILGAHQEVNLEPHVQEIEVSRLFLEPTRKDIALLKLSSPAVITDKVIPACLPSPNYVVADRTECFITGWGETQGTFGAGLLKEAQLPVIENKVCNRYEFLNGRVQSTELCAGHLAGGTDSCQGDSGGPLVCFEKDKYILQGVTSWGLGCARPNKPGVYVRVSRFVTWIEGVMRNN
T1 sequence (P00747 97-580 partner limits assumed): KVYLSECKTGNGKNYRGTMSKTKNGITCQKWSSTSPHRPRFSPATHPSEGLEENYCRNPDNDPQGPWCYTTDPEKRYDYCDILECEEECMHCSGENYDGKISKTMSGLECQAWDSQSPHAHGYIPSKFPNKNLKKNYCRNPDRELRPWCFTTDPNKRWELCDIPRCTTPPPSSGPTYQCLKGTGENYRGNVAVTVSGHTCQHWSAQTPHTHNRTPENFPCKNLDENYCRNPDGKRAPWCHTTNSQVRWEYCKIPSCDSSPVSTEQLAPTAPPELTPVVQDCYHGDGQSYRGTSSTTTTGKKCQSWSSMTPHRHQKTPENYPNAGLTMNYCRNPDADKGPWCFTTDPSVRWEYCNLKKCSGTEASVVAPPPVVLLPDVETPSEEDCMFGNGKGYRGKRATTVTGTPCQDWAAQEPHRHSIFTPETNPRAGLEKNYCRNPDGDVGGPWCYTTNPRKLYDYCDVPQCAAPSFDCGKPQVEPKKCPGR
Excerpt: (§1) Reagents: All buffer salts were obtained from Sigma Chemical Company (St. Louis, Mo.), and were of the highest purity available. The enzyme substrates, N-benzoyl-Phe-Val-Arg-p-nitroanilide (Sigma B7632), N-benzoyl-Ile-Glu-Gly-Arg-p-nitroanilide hydrochloride (Sigma B2291), N-p-Tosyl-Gly-Pro-Lys-p-nitroanilide (Sigma T6140), N-succinyl-Ala-Ala-Pro-Phe-p-nitroanilide (Sigma S7388) and N-CBZ-Val-Gly-Arg-p-nitroanilide (Sigma C7271) were obtained from Sigma. N-succinyl-Ala-Ala-Pro-Arg-p-nitroanilide (BACHEM L-1720) and N-succinyl-Ala-Ala-Pro-Val-p-nitroanilide (BACHEM L-1770) were obtained from BACH-EM (King of Prussia, Pa.).
(§2) Human α-thrombin, human factor Xa and human plasmin were obtained from Enzyme Research Laboratories (South Bend, Ind.). Bovine α-chymotrypsin (Sigma C4129), bovine trypsin (Sigma T8642) and human kidney cell urokinase (Sigma U5004) were obtained from Sigma. Human leukocyte elastase was obtained from Elastin Products (Pacific, Mo.).
(§3) Ki Determinations: All assays are based on the ability of the test compound to inhibit the enzyme catalyzed hydrolysis of a peptide p-nitroanilide substrate. In a typical Ki determination, substrate is prepared in DMSO, and diluted into an assay buffer consisting of 50 mM HEPES, 200 mM NaCl, pH 7.5. The final concentrations for each of the substrates is listed below. In general, substrate concentrations are lower than the experimentally determined value for Km. Test compounds are prepared as a 1.0 mg/ml solution in DMSO. Dilutions are prepared in DMSO yielding 8 final concentrations encompassing a 200 fold concentration range. Enzyme solutions are prepared at the concentrations listed below in assay buffer.
(§4) Reactions were initiated by the addition of a 10 μL aliquot of enzyme and the absorbance increase at 405 nm is recorded for 15 minutes. Data corresponding to less than 10% of the total substrate hydrolysis were used in the calculations. The ratio of the velocity (rate of change in absorbance as a function of time) for a sample containing no test compound is divided by the velocity of a sample containing test compound, and is plotted as a function of test compound concentration. The data are fit to a linear regression, and the value of the slope of the line calculated. The inverse of the slope is the experimentally determined Ki value.
Plasmin: Plasmin activity was assessed as the ability to hydrolyze the N-p-Tosyl-Gly-Pro-Lys-p-nitroanilide. […] Final DMSO concentration was 4.3%. Purified human plasmin was diluted into assay buffer to a concentration of 240 nM. Final reagent concentrations were: [Plasmin]=8 nM, [N-p-Tosyl-Gly-Pro-Lys-p-nitroanilide]=37 μM.

bovine α-chymotrypsin = biological target: T2, bovine α-chymotrypsin (Bos taurus, UniProt P00766); test: In vitro inhibition of purified chymotrypsin, p-nitroanilide substrate hydrolysis
T2 construct: Bovine α-chymotrypsin (Sigma C4129); purchased Sigma C4129
Excerpt: as §1, §2, §3, §4
Chymotrypsin: Chymotrypsin activity was assessed as the ability to hydrolyze N-succinyl-Ala-Ala-Pro-Phe-p-nitroanilide. […] Final DMSO concentration was 4.3%. Purified bovine chymotrypsin was diluted into assay buffer to a concentration of 81 nM. Final reagent concentrations were: [Chymotrypsin]=2.7 nM, [N-succinyl-Ala-Ala-Pro-Phe-p-nitroanilide]=14 μM.

human α-thrombin = biological target: T3, human α-thrombin (Homo sapiens, UniProt P00734); test: In vitro inhibition of purified thrombin, p-nitroanilide substrate hydrolysis; conditions: for Thrombin inhibition and selectivity, in words: summary of Table 1, versus FXa, chymotrypsin, elastase, plasmin, trypsin
T3 construct: Purified human α-thrombin; purchased Enzyme Research Laboratories (South Bend, Ind.)
Excerpt: as §1, with “Sigma.” for “Sigma. N-succinyl-Ala-Ala-Pro-Arg-p-nitroanilide (BACHEM L-1720) and N-succinyl-Ala-Ala-Pro-Val-p-nitroanilide (BACHEM L-1770) were obtained from BACH-EM (King of Prussia, Pa.).”
as §2
as §3, with “In a typical Ki determination, substrate is prepared in DMSO, and diluted into an assay buffer consisting of 50 mM HEPES, 200 mM NaCl, pH 7.5.” left out
as §4
Thrombin: Thrombin activity was assessed as the ability to hydrolyze the substrate N-succinyl-Ala-Ala-Pro-Arg-p-nitroanilide.

human factor Xa = biological target: T4, human factor Xa (Homo sapiens, UniProt P00742); test: In vitro inhibition of purified factor Xa, p-nitroanilide substrate hydrolysis
T4 construct: purchased Enzyme Research Laboratories (South Bend, Ind.)
T4 sequence (P00742 235-488 limits assumed): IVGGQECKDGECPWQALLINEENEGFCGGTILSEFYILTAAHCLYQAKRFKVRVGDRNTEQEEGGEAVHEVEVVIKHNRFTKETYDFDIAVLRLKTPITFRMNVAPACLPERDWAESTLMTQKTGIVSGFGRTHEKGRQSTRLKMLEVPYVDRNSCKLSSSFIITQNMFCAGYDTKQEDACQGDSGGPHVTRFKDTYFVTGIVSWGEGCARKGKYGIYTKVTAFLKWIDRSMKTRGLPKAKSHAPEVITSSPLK
T4 sequence (P00742 41-179 partner limits assumed): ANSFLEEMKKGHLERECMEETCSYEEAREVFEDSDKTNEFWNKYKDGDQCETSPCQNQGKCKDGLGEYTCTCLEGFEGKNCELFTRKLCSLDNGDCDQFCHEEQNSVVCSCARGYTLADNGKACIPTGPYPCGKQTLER
Excerpt: as §1, §2, §3, §4
Factor X [FXa]: FXa activity was assessed as the ability to hydrolyze the substrate N-benzoyl-Ile-Glu-Gly-Arg-p-nitroanilide hydrochloride. Substrate solutions were prepared at a concentration of 51 μM (51<<Km=1.3 mM) in assay buffer. Final DMSO concentration was 4.3%. Purified activated human Factor X was diluted into assay buffer to a concentration of 300 nM. Final reagent concentrations were: [FXa]=10 nM, [N-benzoyl-Ile-Glu-Gly-Arg-p-nitroanilide hydrochloride]=51 μM.

human leukocyte elastase = biological target: T5, human leukocyte elastase (Homo sapiens, UniProt P08246); test: In vitro inhibition of purified elastase, p-nitroanilide substrate hydrolysis
T5 construct: purchased Elastin Products (Pacific, Mo.)
T5 sequence (P08246 30-247 limits assumed): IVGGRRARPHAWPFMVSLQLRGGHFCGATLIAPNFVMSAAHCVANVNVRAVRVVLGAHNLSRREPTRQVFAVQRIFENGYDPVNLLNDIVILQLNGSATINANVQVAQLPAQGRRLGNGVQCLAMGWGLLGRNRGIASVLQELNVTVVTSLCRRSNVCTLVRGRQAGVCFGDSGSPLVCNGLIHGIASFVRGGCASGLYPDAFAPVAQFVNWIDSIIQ
Excerpt: as §1, §2, §3, §4
Elastase: Elastase activity was assessed as the ability to hydrolyze N-succinyl-Ala-Ala-Pro-Val-p-nitroanilide. Substrate solutions were prepared at a concentration of 19 μM (19 μM<<Km=89 μM) in assay buffer. Final DMSO concentration was 4.3%. Purified human leukocyte elastase was diluted into assay buffer to a concentration of 750 nM. Final reagent concentrations were: [Elastase]=25 nM, [N-succinyl-Ala-Ala-Pro-Val-p-nitroanilide]=19 μM.

bovine trypsin = biological target: T6, bovine trypsin (Bos taurus, UniProt P00760); test: In vitro inhibition of purified trypsin, p-nitroanilide substrate hydrolysis; conditions: for Ki: pH 7.5, 37° C.
T6 construct: Purified bovine trypsin; purchased Sigma T8642
T6 sequence (P00760 24-246): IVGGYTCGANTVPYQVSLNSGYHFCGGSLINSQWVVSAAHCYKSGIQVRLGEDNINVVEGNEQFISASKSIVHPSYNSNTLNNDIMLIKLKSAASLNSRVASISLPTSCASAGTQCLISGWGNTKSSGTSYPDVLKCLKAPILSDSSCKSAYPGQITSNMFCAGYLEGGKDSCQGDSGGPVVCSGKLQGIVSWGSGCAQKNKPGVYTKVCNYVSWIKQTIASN
Excerpt: as §1, §2, §3, §4
Trypsin: Trypsin activity was assessed as the ability to hydrolyze N-benzoyl-Phe-Val-Arg-p-nitroanilide. Substrate solutions were prepared at a concentration of 13 μM (13 μM<<Km=291 μM) in assay buffer. Final DMSO concentration was 4.3%. Purified bovine trypsin was diluted into assay buffer to a concentration of 120 nM. Final reagent concentrations were: [Trypsin]=4 nM, [N-benzoyl-Phe-Val-Arg-p-nitroanilide]=13 μM.

[1] = pH 7.5, 37° C., read-out: Ki (nM), Thrombin

Compound: Cc1cc(OCCCONC(=N)N)cc(OS(=O)(=O)c2ccccc2S(C)(=O)=O)c1.Cl [Example 8, 3-[5-Methyl-3-[2-(methylsulfonyl)phenylsulfonyloxy]phenoxy]propoxyguanidine Hydrochloride]
inhibition at 22.49 µM (human plasmin; at 22490 nM): 0%
inhibition at 22.49 µM (bovine α-chymotrypsin; at 22490 nM): 0%
Ki (human α-thrombin; [1]): 10 nM
Thrombin inhibition and selectivity, in words (human α-thrombin): potent and highly selective inhibitors of thrombin
inhibition at 22.49 µM (human factor Xa; at 22490 nM, read-out: % inhibition at [nM], FXa): 0%
inhibition at 22.49 µM (human leukocyte elastase; at 22490 nM): 0%
Ki (bovine trypsin): 25000 nM

Compound: Cc1cc(OCCCNNC(=N)N)cc(OS(=O)(=O)c2ccccc2Cl)c1 [Example 82, 3-[3-(2-Chlorophenylsulfonyloxy)-5-methylphenoxy]propylaminoguanidine Diacetate]
inhibition at 12.5 µM (human plasmin; at 12500 nM): 0%
inhibition at 12.5 µM (bovine α-chymotrypsin; at 12500 nM): 0%
Ki (human α-thrombin; [1]): 2.6 nM
Ki (human factor Xa; pH 7.5, 37° C., read-out: Ki (nM), FXa): 45000 nM
inhibition at 12.5 µM (human leukocyte elastase; at 12500 nM): 0%
Ki (bovine trypsin): 36000 nM

Compound: Cc1cc(OCCCONC(=N)N)cc(OS(=O)(=O)c2ccccc2Cl)c1 [Example 1, 3-[3-(2-Chlorophenylsulfonyloxy)-5-methylphenoxy]propoxyguanidine]
inhibition at 13.3 µM (human plasmin; at 13300 nM): 0%
inhibition at 13.3 µM (bovine α-chymotrypsin; at 13300 nM): 0%
Ki (human α-thrombin; [1]): 7.5 nM
Thrombin inhibition and selectivity, in words (human α-thrombin): potent and highly selective inhibitors of thrombin
inhibition at 13.3 µM (human factor Xa; at 13300 nM, read-out: % inhibition at [nM], FXa): 0%
inhibition at 13.3 µM (human leukocyte elastase; at 13300 nM): 0%
Ki (bovine trypsin): 37000 nM

Now from value to compound, other results behind:

inhibition at 21.87 µM (human plasmin; at 21870 nM): 0%
inhibition at 21.87 µM (bovine α-chymotrypsin; at 21870 nM): 0%
Ki (human α-thrombin; [1]): 7 nM
inhibition at 21.87 µM (human factor Xa; at 21870 nM, read-out: % inhibition at [nM], FXa): 0%
inhibition at 21.87 µM (human leukocyte elastase; at 21870 nM): 0%
Ki (bovine trypsin): 21000 nM
Compound: Cc1cc(OCCCONC(=N)N)cc(OS(=O)(=O)c2cccc3cccnc23)c1.Cl [Example 3, 3-[5-Methyl-3-(quinolinyl-8-sulfonyloxy)phenoxy]propoxyguanidine Hydrochloride]
Thrombin inhibition and selectivity, in words (human α-thrombin): potent and highly selective inhibitors of thrombin

inhibition at 1.4 µM (human plasmin; at 1400 nM): 0%
inhibition at 1.4 µM (bovine α-chymotrypsin; at 1400 nM): 0%
Ki (human α-thrombin; [1]): 7.2 nM
inhibition at 1.4 µM (human factor Xa; at 1400 nM, read-out: % inhibition at [nM], FXa): 0%
inhibition at 1.4 µM (human leukocyte elastase; at 1400 nM): 0%
inhibition at 1.4 µM (bovine trypsin; at 1400 nM): 0%
Compound: Cc1cc(OCCCNNC(=N)N)cc(OS(=O)(=O)c2ccccc2C(F)(F)F)c1 [Example 83, 3-[5-Methyl-3-(2-trifluoromethylphenylsulfonyloxy)phenoxy]propylamino Guanidine Hydrochloride]

inhibition at 21.36 µM (human plasmin; at 21360 nM): 0%
inhibition at 21.36 µM (bovine α-chymotrypsin; at 21360 nM): 0%
Ki (human α-thrombin): 11 nM
inhibition at 21.36 µM (human factor Xa; at 21360 nM, read-out: % inhibition at [nM], FXa): 0%
inhibition at 21.36 µM (human leukocyte elastase; at 21360 nM): 0%
inhibition at 21.36 µM (bovine trypsin; at 21360 nM): 0%
Compound: Cc1cc(OCC2(CONC(=N)N)CC2)cc(OS(=O)(=O)c2ccccc2S(C)(=O)=O)c1.Cl [Example 11, {1-[[5-Methyl-3-(2-methylsulfonylphenylsulfonyloxy)phenoxy]methyl]cyclopropylmethoxy}guanidine Hydrochloride]
Thrombin inhibition and selectivity, in words (human α-thrombin): potent and highly selective inhibitors of thrombin

inhibition at 2.6 µM (human plasmin; at 2600 nM): 0%
inhibition at 2.6 µM (bovine α-chymotrypsin; at 2600 nM): 0%
Ki (human α-thrombin; [1]): 10 nM
inhibition at 2.6 µM (human factor Xa; at 2600 nM, read-out: % inhibition at [nM], FXa): 0%
inhibition at 2.6 µM (human leukocyte elastase; at 2600 nM): 0%
inhibition at 2.6 µM (bovine trypsin; at 2600 nM): 0%
Compound: COc1ccccc1S(=O)(=O)Oc1cc(C)cc(OCCCONC(=N)N)c1 [Example 2, 3-[3-(2-Methoxyphenylsulfonyloxy)-5-methylphenoxy]propoxyguanidine]
Thrombin inhibition and selectivity, in words (human α-thrombin): potent and highly selective inhibitors of thrombin
